Test results as given in patent US20240216412A1, “OXIDIZED NICOTINAMIDE ADENINE DINUCLEOTIDE (NAD+) PRECURSOR TREATMENT FOR HEART FAILURE ALLEVIATION INDEPENDENT OF MITOCHONDRIAL PROTEIN DEACETYLATION” (University of Washington, priority 2022, published 2024).

Tests used:
Assay type in all cases: in vivo, mouse
[1] = system: NAD(H) levels in hearts and livers; assay: Heart and liver NAD+/NADH after oral or IP NR administration (Experimental Example 2)
Experimental: Mice 2-4 months old were used, weighing 25 to 27 g, with water intake ranging from 3.5 to 6.5 ml/day. To each mouse, either NR as an NAD precursor was administered daily or vehicle was administered daily, for up to 10 days, either by IP injection or orally by drinking water. Saline was used as vehicle for IP injection. For oral administration, vehicle was unmodified drinking water. NR was supplied substantially as in Experimental Example 1. For IP administration, NR was diluted in sterile, pharmaceutical-grade isotonic saline at concentrations based on weight-based dosing per subject to provide respective 500 mg/kg body weight daily doses as administrated by IP injection. Additionally, for oral administration, NR was dissolved in sterile filtered water at concentrations based on weight-based dosing per subject to provide respective 400 mg/kg body weight daily doses, provided for drinking adlibitum. […] Over the first several days of oral administration of NR solutions, the consumption of NR water was monitored daily to verify that mice are not finding the NR water unpalatable and becoming dehydrated. […] NAD^+ and NADH were determined in approximately 6 mg heart tissue and approximately 6 mg liver tissue using BioAssay Systems EnzyChrom NAD^+/NAD Assay Kit ([…]-100) per manufactures instructions.

[2] = system: mitochondrial protein acetylation; Mrpp2, mt-Cox1, mt-Nd1 protein levels; assay: Western blot of cardiac mitochondrial protein acetylation and of Mrpp2, mt-Cox1, mt-Nd1
Experimental: Western blot. For Western blot procedures cardiac tissues were homogenized with RIPA buffer (ThermoScientific Pierce RIPA Buffer #89900) and protease inhibitors (Roche Cat. No. 11-836-170-001) using bullet blender at 4° C. for 10 minutes. Protein concentrations of supernatants were collected after centrifugation and quantified using Pierce™ BCA® Protein Assay Kits and Reagents (#23225). Protein lysates in Lammeli sample buffer were loaded to 10% SDS-PAGE, transferred to PVDF membrane and blocked with 5% BSA in TSBT. Specific proteins were detected by specific antibodies listed above and corresponding secondary antibodies. Signals were visualized by HRP derived chemiluminescence (Amersham ECL Western Blotting Detection System #RPN2106) and film. Protein levels were quantified by Image-J.
Mitochondrial Isolation from cardiac tissue. Hearts were excised from mice, the aortas and atria were removed. Heart tissues were rinsed briefly in ice-cold mitochondria isolation medium (MIM) (70 mM sucrose, 220 mM mannitol, 5 mM MOPS, 1 mM EDTA, 0.025% fatty acid-free BSA, pH 7.4 with 5M KOH) to remove residual blood. Tissues were minced on ice and resuspended in fresh MIM, followed by trypsin digestion (10 ug/ml) and incubated on ice for 10 min. Trypsin digestion was stopped by the addition of trypsin inhibitor (0.5 mg/ml) and additional BSA (1 mg/ml) to MIM. The tissue pellets were resuspended in fresh MIM containing 1 mg/ml BSA, and transferred to a Teflon-glass tube and homogenized on ice with a Teflon pestle. The homogenates were centrifuged for 10 min at 800×g at 4° C. The supernatants were collected and centrifuged for 10 min at 8,000×g at 4° C. The supernatant was discarded and the mitochondrial pellets were resuspended in MIM to wash. The resuspension was centrifuged for 10 min at 8,000×g at 4° C., and the supernatant discarded. The mitochondrial pellet was resuspended to a concentrated volume for protein quantification by BCA Assay (Pierce).
Antibodies. Acetylated lysine antibody (Cell Signaling 9441s), Mrpp2 (Hsd17b10, ERAB) from Proteintech catalog number 10648-1-AP, Mrrp1 (Trmt10c) from Proteintech catalog number 29087-1-AP, Mt-C01 from Abcam [1D6E1A8] (ab14705), and Mt-Nd1 from Santa Cruz (C-18) catalog sc-20493, RXRα (Cell Signaling D6H10) Rabbit mAb, SirT3 (Cell Signaling D22A3) Rabbit mAb, ATP5B (E-1) Santa Cruz Biotechnology sc-55597.

Mrpp2 = Mrpp2 dehydrogenase activity in heart homogenates; settings: NR treated failing (TAC) hearts, matching sham operated controls
Experimental: Enzyme Activities. Citrate synthase (CS), Complex I (CI) and Cytochrome C Oxidase (CIV), and Mrpp2 dehydrogenase activities were determined in heart tissue homogenates at 30° C. using a protocol adapted from previously published methods (Spinazzi et al., 2012). Briefly, for CS activity frozen cardiac tissue (25 mg) was homogenized at 4° C. in CelLytic™ MT Cell Lysis Reagent (C3228) and then incubated on ice for 30 minutes. The samples were then centrifuged at 10,000×g for 10 minutes at 4° C. and protein concentration determined. CS activity was analyzed in 100 mM Tris buffer containing 0.1% Triton X-100, pH 8.0 as previously described (Spinazzi et al., 2012). […] CIV activity was analyzed in 100 mM potassium phosphate buffer as previously described (Spinazzi et al., 2012). […] Cl activity was analyzed in 100 mM potassium phosphate buffer as previously described (Spinazzi et al., 2012). In parallel, a separate reactions containing the same quantity of reagents and sample but with the addition of 10 μl of 1 mM rotenone solution. The reactions were started by adding 6 μl of ubiquinone (10 mM), mix and follow the decrease of absorbance at 340 nm for 2 min. The dehydrogenase activity of Mrpp2 was measured as described (Falk et al., 2016) in the reverse direction for reduction of acetoacetyl-CoA (30 mM) to L-3-hydroxyacyl-CoA. The reaction was monitored as the decrease of absorbance at 340 nm.

NC(=O)c1ccc[n+]([C@@H]2O[C@H](CO)[C@@H](O)[C@H]2O)c1 [NR, Nicotinamide riboside chloride]
Increase of NAD(H) in hearts and livers, IP injection over oral administration ([1]; IP 500 mg/kg daily 10 days vs oral 400 mg/kg daily 3 or 7 days): greater increases
Levels of NAD(H) in hearts and livers ([1]; oral 400 mg/kg daily 3 or 7 days, IP 500 mg/kg daily 10 days): increased
Mitochondrial protein acetylation ([2]; NR treated Sirt3Ko mice): no change
Mrpp2 protein level ([2]; NR treated TAC hearts): normalization
Protein levels of mt-Cox1 and mt-Nd1 ([2]; TAC hearts that received NR): preserved
Mitochondrial protein hyperacetylation ([2]; WT control mice after TAC): reversed the protein hyperacetylation
Increase in Mrpp2 dehydrogenase activity (Mrpp2): ~2 fold
